# Test results: patent publication US8883963B2 (Cadila Healthcare Limited, priority 2007, dated 2014)
# Non-standard residues stand in square brackets, D forms with d. Residues, ends and D or L forms follow the SMILES beside them. ξ: configuration not given here. *: point of attachment. X5 = CCc1cc(OC)ccc1-c1ccc(CC(N*)C(=S)NC(CCCc2ccccc2F)C(N)=O)cc1; Leu(5,5,5,5',5',5'-F6) = N[C@@H](CC(C(F)(F)F)C(F)(F)F)C(=O)O; ξBip(2'-Et-4'-OMe) = CCc1cc(OC)ccc1-c1ccc(CC(N)C(=O)O)cc1; ξNva(5-(3,5-Me2-Ph)) = Cc1cc(C)cc(CCCC(N)C(=O)O)c1; ξNva(5-(3-Cl-Ph)) = NC(CCCc1cccc(Cl)c1)C(=O)O; ξαMePhe(2-F) = CC(N)(Cc1ccccc1F)C(=O)O; aThr = C[C@H](O)[C@H](N)C(=O)O; Ac5c = NC1(C(=O)O)CCCC1; Aib = CC(C)(N)C(=O)O
# Key:
# [1] = Stability in simulated gastric fluid; assay type: in vitro ADME; details: 2 μM peptidomimetic, simulated gastric fluid pH 1.5, 37° C.; for half-life at 2 μM: read-out: half-life (t1/2) when incubated with simulated gastric fluid
# Method: (§1) Reactions were terminated by the addition of TFA/H2O (15 mL, 10% (v/v)). […] The column was equilibrated with TFA/H20, at a flow rate of 1 mL/min.
# [2] = Stability in simulated intestinal fluid; assay type: in vitro ADME; details: 2 μM peptidomimetic, simulated intestinal fluid pH 7.5, 37° C.
# Method: as §1
# DPP IV = DPP IV (Homo sapiens, UniProt P27487); experiment: Stability against DPP IV enzyme; assay type: in vitro ADME; details: 37° C.; for % degradation of peptidomimetics in 24 h when incubated with DPP-IV enzyme: 2 μM peptidomimetic; for half-life at 2 μM: DPP IV enzyme, pH 7.8, 2 μM peptidomimetic, read-out: half-life (t1/2) when incubated with DPP-IV enzyme
# Method: as §1
# [3] = Stability in human plasma; assay type: in vitro ADME; details: 2 μM peptidomimetic, pooled human plasma, 37° C.; for half-life at 2 μM: pH 7.8, read-out: half-life (t1/2) when incubated with human plasma
# Method: as §1
# [4] = Stability in liver microsomes; assay type: in vitro ADME; details: 2 μM peptidomimetic, human liver microsomes, 37° C.; for half-life at 2 μM: pH 7.8, read-out: half-life (t1/2) when incubated with liver microsomes
# Method: as §1
# [5] = test system: RIN5F (Rat Insulinoma) cells; experiment: In vitro glucose-dependent insulin secretion (RIN5F cell assay screening protocol); assay type: cell-based; details: 16.7 mM glucose load
# Method: RIN5F (Rat Insulinoma) cells were cultured in RPMI 1640 medium supplemented with sodium pyruvate (1 mM) HEPES and Glucose (4.5 g/L) in a humidified incubator (5% CO2), at 37° C. After trypsinization, RIN5F cells were seeded at a concentration of 0.2×10^6 cells per well, in 12 well plates.
# The buffer was replaced after 40 min. and the cells were incubated (37° C.) with the test peptidomimetics, at different concentration, for 30 min., both in the presence (16.7 mM) and absence (0 mM) of glucose load. The supernatant was collected and the insulin amount was measured by ultra sensitive Rat insulin ELISA kit (Crystal Chem, IL). The protein was estimated in the supernatant using Bicinchoninic Acid kit, according to the manufacturer's protocol (Sigma Aldrich, MO). The total insulin content obtained in Pico-gram (pg) was divided with the total protein (μg) in order to normalize for differences in cell density between wells.
# human glucagon receptor = biological target: T1, human glucagon receptor (Homo sapiens, UniProt P47871); experiment: In vitro human glucagon antagonist activity (inhibition of cAMP production) in CHO/human glucagon R cells; assay type: cell-based; details: with saturated concentration of glucagon peptide
# T1 construct: The full-length cDNA was cloned in pcDNA3.1 (Invitrogen); expressed in transfected cells
# T1 sequence (P47871 26-477): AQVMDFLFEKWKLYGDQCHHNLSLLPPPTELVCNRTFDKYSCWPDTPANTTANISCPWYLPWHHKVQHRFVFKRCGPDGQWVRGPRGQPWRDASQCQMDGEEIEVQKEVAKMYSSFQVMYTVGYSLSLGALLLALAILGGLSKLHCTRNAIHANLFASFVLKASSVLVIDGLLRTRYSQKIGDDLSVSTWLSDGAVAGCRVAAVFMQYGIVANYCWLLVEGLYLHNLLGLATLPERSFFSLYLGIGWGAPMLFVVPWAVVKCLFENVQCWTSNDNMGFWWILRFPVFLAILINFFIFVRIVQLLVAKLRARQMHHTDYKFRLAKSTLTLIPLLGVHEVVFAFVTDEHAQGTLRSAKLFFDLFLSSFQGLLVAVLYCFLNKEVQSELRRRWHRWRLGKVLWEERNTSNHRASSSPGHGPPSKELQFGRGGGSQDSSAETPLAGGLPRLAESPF
# DPP IV, sequence (P27487 whole entry, species assumed): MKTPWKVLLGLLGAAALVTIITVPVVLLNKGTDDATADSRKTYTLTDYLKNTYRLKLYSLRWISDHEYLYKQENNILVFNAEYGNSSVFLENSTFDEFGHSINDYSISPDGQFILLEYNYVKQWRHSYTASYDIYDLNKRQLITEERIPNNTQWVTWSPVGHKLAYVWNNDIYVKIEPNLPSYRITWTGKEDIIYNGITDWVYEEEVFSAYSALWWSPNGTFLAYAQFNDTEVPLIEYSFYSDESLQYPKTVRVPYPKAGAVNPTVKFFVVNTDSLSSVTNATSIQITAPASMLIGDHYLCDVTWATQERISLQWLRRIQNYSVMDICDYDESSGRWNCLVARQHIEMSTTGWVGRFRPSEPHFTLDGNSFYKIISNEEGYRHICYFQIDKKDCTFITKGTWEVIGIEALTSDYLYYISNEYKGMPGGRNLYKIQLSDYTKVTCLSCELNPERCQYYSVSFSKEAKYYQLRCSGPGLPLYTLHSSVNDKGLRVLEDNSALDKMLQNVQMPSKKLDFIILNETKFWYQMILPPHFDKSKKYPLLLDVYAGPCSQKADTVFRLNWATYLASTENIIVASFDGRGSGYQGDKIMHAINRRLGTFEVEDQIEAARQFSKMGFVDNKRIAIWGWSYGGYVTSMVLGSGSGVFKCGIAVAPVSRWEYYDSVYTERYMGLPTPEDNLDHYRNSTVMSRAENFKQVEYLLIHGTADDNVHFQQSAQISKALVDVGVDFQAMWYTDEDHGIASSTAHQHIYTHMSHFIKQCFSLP
half-life (t1/2) when incubated with simulated gastric fluid [1],% degradation of peptidomimetics in 24 h when incubated with simulated gastric fluid [1],half-life (t1/2) when incubated with simulated intestinal fluid [2],% degradation of peptidomimetics in 24 h when incubated with simulated intestinal fluid [2],% degradation of peptidomimetics in 24 h when incubated with DPP-IV enzyme (DPP IV),half-life at 2 μM (DPP IV),% degradation of peptidomimetics in 24 h when incubated with human plasma [3],half-life at 2 μM [3],% degradation of peptidomimetics in 24 h when incubated with liver microsomes [4],half-life at 2 μM [4],half-life at 2 μM [1],half-life at 2 μM ([2]; read-out: half-life (t1/2) when incubated with simulated intestinal fluid),SMILES,Insulin secretion ([5]; 0.1 nM test compd.),Insulin secretion ([5]; 1 nM test compd.),Insulin secretion ([5]; 10 nM test compd.),Human Glucagon receptor antagonistic activity shown as inhibition of cAMP production of Glucagon peptide (human glucagon receptor; 1 nM test compound),Human Glucagon receptor antagonistic activity shown as inhibition of cAMP production of Glucagon peptide (human glucagon receptor; 10 nM test compound),Human Glucagon receptor antagonistic activity shown as inhibition of cAMP production of Glucagon peptide (human glucagon receptor; 100 nM test compound),Human Glucagon receptor antagonistic activity shown as inhibition of cAMP production of Glucagon peptide (human glucagon receptor; 1 μM test compound),Human Glucagon receptor antagonistic activity shown as inhibition of cAMP production of Glucagon peptide (human glucagon receptor; 10 μM test compound)
(8) h,14%,(6) h,43%,76%,9 h,78%,8 h,80%,1 h,–,–,"CCc1cc(OC)ccc1-c1ccc(CC(NC(=O)[C@H](CC(=O)O)NC(=O)[C@H](CO)NC(=O)[C@@H](NC(=O)[C@H](Cc2ccccc2)NC(=O)[C@@H](NC(=O)CNC(=O)[C@H](CCC(N)=O)NC(=O)C2(C)CCCN2C(=O)[C@@H](N)Cc2c[nH]cn2)[C@@H](C)O)[C@@H](C)O)C(=O)NC(CCCc2ccc(Cl)cc2C)C(N)=O)cc1 (single isomer, unassigned) [compound 12]",–,–,–,–,–,–,–,–
(8) h,14%,(6) h,40%,70%,9 h,71%,8 h,78%,1 h,–,–,"CCc1cc(OC)ccc1-c1ccc(CC(NC(=O)[C@H](CC(=O)O)NC(=O)[C@H](CO)NC(=O)[C@@H](NC(=O)[C@H](Cc2ccccc2)NC(=O)[C@@H](NC(=O)CNC(=O)[C@H](CCC(N)=O)NC(=O)C2(NC(=O)[C@@H](N)Cc3c[nH]cn3)CC2)[C@@H](C)O)[C@@H](C)O)C(=O)NC(CCCc2ccc(F)cc2F)C(N)=O)cc1 (single isomer, unassigned) [compound 70]",–,–,–,–,–,–,–,–
–,43%,–,00%,00%,> 24 h,00%,> 24 h,84%,2 h,4 h,> 24 h,"CCc1cc(OC)ccc1-c1ccc(CC(CNC(CCCc2ccccc2)C(N)=O)NC[C@H](CC(=O)O)NC(=O)[C@H](CO)NC(=O)[C@@H](NC(=O)C(C)(Cc2ccccc2F)NC(=O)[C@@H](NC(=O)CNC(=O)[C@H](CCC(N)=O)NC(=O)C(C)(C)NC(=O)[C@@H](N)Cc2c[nH]cn2)[C@H](C)O)[C@H](C)O)cc1 (single isomer, unassigned) [compound 201]",–,–,–,–,–,–,–,–
–,–,–,–,–,–,–,–,–,–,–,–,"CCc1cc(OC)ccc1-c1ccc(CC(NC(=O)[C@H](CC(=O)O)NC(=O)[C@H](CO)NC(=O)[C@@H](NC(=O)C(C)(Cc2ccccc2F)NC(=O)[C@@H](NC(=O)CNC(=O)[C@H](CC(C(F)(F)F)C(F)(F)F)NC(=O)C(C)(C)NC(=O)[C@@H](N)Cc2c[nH]cn2)[C@@H](C)O)[C@H](C)O)C(=O)NC(CCCc2ccccc2)C(N)=O)cc1 (single isomer, unassigned) [compound 225]",12.4 ± 0.22 pg/µg/h,15.2 ± 0.32 pg/µg/h,29.6 ± 0.50 pg/µg/h,5 ± 0.01 pmol/ml/μg prt,2 ± 0.17 pmol/ml/μg prt,0 pmol/ml/μg prt,0 pmol/ml/μg prt,0 pmol/ml/μg prt
–,–,–,–,–,–,–,–,–,–,–,–,"CCc1cc(OC)ccc1-c1ccc(CC(NC(=O)[C@H](CC(=O)O)NC(=O)[C@H](CO)NC(=O)[C@@H](NC(=O)C(C)(Cc2ccccc2F)NC(=O)[C@@H](NC(=O)CNC(=O)[C@H](CC(C(F)(F)F)C(F)(F)F)NC(=O)C(C)(C)NC(=O)[C@@H](N)Cc2c[nH]cn2)[C@@H](C)O)[C@@H](C)O)C(=O)NC(CCCc2ccc(Cl)cc2C)C(N)=O)cc1 (single isomer, unassigned) [compound 237]",12.0 ± 0.14 pg/µg/h,14.3 ± 0.12 pg/µg/h,27.8 ± 0.32 pg/µg/h,21 ± 0.11 pmol/ml/μg prt,19 ± 0.02 pmol/ml/μg prt,18 ± 0.07 pmol/ml/μg prt,18 ± 0.03 pmol/ml/μg prt,16 ± 0.02 pmol/ml/μg prt
–,11%,(6) h,43%,71%,8 h,69%,8 h,77%,2 h,7 h,–,CCc1cc(OC)ccc1-c1ccc(CC(NC(=O)[C@H](CC(=O)O)NC(=O)[C@H](CO)NC(=O)[C@@H](NC(=O)[C@H](Cc2ccccc2)NC(=O)[C@@H](NC(=O)CNC(=O)[C@H](CCC(N)=O)NC(=O)[C@H](CO)NC(=O)[C@@H](N)Cc2c[nH]cn2)[C@@H](C)O)[C@@H](C)O)C(=O)NC(CCCc2cccc(Cl)c2)C(N)=O)cc1 (stereo partly drawn) [compound 7] (H-HSQGTFTSD[ξBip(2'-Et-4'-OMe)][ξNva(5-(3-Cl-Ph))]-NH2),–,–,–,–,–,–,–,–
–,–,–,–,–,–,–,–,–,–,–,–,"CCc1cc(OC)ccc1-c1ccc(CC(NC(=O)[C@H](CC(=O)O)NC(=O)[C@H](CO)NC(=O)[C@@H](NC(=O)[C@H](Cc2ccccc2)NC(=O)[C@@H](NC(=O)CNC(=O)[C@H](CCC(N)=O)NC(=O)C2(NC(=O)[C@@H](N)Cc3c[nH]cn3)CCCC2)[C@@H](C)O)[C@@H](C)O)C(=O)NC(CCCc2cc(C)cc(C)c2)C(N)=O)cc1 (stereo partly drawn) [compound 26] (H-H[Ac5c]QGTFTSD[ξBip(2'-Et-4'-OMe)][ξNva(5-(3,5-Me2-Ph))]-NH2)",16.6 ± 0.41 pg/µg/h,22.9 ± 0.32 pg/µg/h,36.6 ± 0.19 pg/µg/h,15 ± 0.11 pmol/ml/μg prt,12 ± 0.13 pmol/ml/μg prt,8 ± 0.09 pmol/ml/μg prt,4 ± 0.01 pmol/ml/μg prt,2 ± 0.08 pmol/ml/μg prt
–,–,–,–,–,–,–,–,–,–,–,–,"CCc1cc(OC)ccc1-c1ccc(CC(NC(=O)[C@H](CC(=O)O)NC(=O)[C@H](CO)NC(=O)[C@@H](NC(=O)C(C)(Cc2ccccc2F)NC(=O)[C@@H](NC(=O)CNC(=O)[C@H](CC(C(F)(F)F)C(F)(F)F)NC(=O)C(C)(C)NC(=O)[C@@H](N)Cc2c[nH]cn2)[C@H](C)O)[C@H](C)O)C(=S)NC(CCCc2ccccc2F)C(N)=O)cc1 (stereo partly drawn) [compound 218] (H-H[Aib][Leu(5,5,5,5',5',5'-F6)]G[aThr][ξαMePhe(2-F)][aThr]SD-X5)",12.3 ± 0.33 pg/µg/h,14.8 ± 0.16 pg/µg/h,28.1 ± 0.22 pg/µg/h,9 ± 0.11 pmol/ml/μg prt,6 ± 0.12 pmol/ml/μg prt,5 ± 0.14 pmol/ml/μg prt,3 ± 0.22 pmol/ml/μg prt,0 pmol/ml/μg prt
